US20080051372A1, “METHODS UTILIZING CELL-SIGNALING LYSOPHOSPHOLIPIDS” (THE SCRIPPS RESEARCH INSTITUTE, priority 2006, published 2008)

Assays:
[1] = system: cortical neuronal progenitors on retroviral infected LPA1/LPA2 double-null astrocytes; assay: retroviral rescue of LPA1/LPA2 double-null astrocytes, co-culture; type: cell-based, mouse
Experimental: Retroviral vectors expressing LPA1 or LPA2 were reported previously (Ishii et al., Functional comparisons of the lysophosphatidic acid receptors, LP(A1)/VZG-1/EDG-4, and LP(A3)/EDG-7 in neuronal cell lines using a retrovirus expression system, 2000, Mol. Pharmacology, 58:895-902, incorporated herein by reference) as depicted in FIG. 8A. LPA1/LPA2 double-null astrocytes were infected with the epitope-tagged LPA1, LPA2, or empty-vector control retrovirus in 4 μg/ml of polybrene to the media of subconfluent proliferating astrocytes plated in a monolayer. Plates were centrifuged (700 g) at 28° C. for 2 hours, and the astrocytes cultured for 48 hours in fresh media. Astrocytes were serum starved for another 24 hours and then used in the assays. Receptor expression was confirmed by epitope-tagged immunolabeling of GFP-positive cells.
The retroviral infected LPA1/LPA2 double-null astrocytes were treated with LPA. The astrocytes monolayers were co-cultured with cortical neuronal progenitors derived from E14 wild type mice. After 24 hours, cells were immunostained for the neuronal marker, β-tubulin III, and the number of neurons and arborization of their neurites were measured.

[2] = system: cortical neuronal progenitors (E14) plated onto cortical astrocyte monolayers; assay: neuron-astrocyte co-culture on astrocytes previously treated with LPA; type: cell-based, mouse
Experimental: All animal protocols were approved by the Animal Research Committee of The Scripps Research Institute, conformed to National Institutes of Health guidelines and public law. Astrocyte primary cultures were prepared from cerebral cortex of newborn mice as previously described (de Sampaio e Spohr et al., Neuron-glia interaction effects on GFAP gene: a novel role for transforming growth factor-31, 2002, Eur J Neurosci, 16:2059-2069, incorporated herein by reference and Sousa et al., Glial fibrillary acidic protein gene promoter is differently modulated by transforming growth factor-beta 1 in astrocytes from distinct brain regions, 2004, Eur Neurosci, 19(7):1721-1730, incorporated by reference in its entirety). Astrocytes cultures were generated from C57B1/6 and Swiss mice. Briefly, after the mice were anesthetized, they were decapitated, brain structures were removed and the meninges were carefully stripped off. Dissociated cells were plated onto glass coverslips in 24 wells-plate (Corning Incorporated, NY), previously coated with polyornithine (1.5 μg/ml, mol. wt. 41,000, Sigma Chemical Co., St. Louis, Mo.), in DMEM/F12 medium supplemented with 10% fetal calf serum (Invitrogen, Carlsbad, Calif.). The cultures were incubated at 37° C. in a humidified 5% CO2, 95% air chamber for 10 days until reaching confluence. For experiments with LPA null mice, embryos from LPA, LPA2 double-heterozygous females (on a mixed background C57B1/6×129SW) were genotyped by PCR using DNA isolated from a small part of the tail (Contos et al., Requirement of the LPA, lysophosphatidic acid receptor gene in normal suckling behavior, 2000, PNAS, 97(24):13384-13389, incorporated herein by reference; Contos et al., Characterization of LPA(2) (Edg4) and LPA(I)/LPA(2) (edg2/Edg4) lysophosphatidic acid receptor knockout mice: signaling deficits without obvious pehotypic abnormality attributable to LPA(2), 2002, Mol Cell Bio, 22(19):6921-6929, incorporated herein by reference).
After reaching confluence, glial mono layers were washed three times with serum-free DMEM/F12 medium and incubated as previously described for an additional day in serum-free medium. Cultures were then treated with 1 μM LPA (Oleoyl-LPA, Avanti Polar Lipids) in DMEM/F12 supplemented with 0.1% fatty-acid free bovine serum albumin (FAFBSA, Sigma) for 4 hours. Control astrocyte carpets were treated with DMEM/F12 supplemented with 0.1% FAFBSA. Medium was then replaced by DMEM/F12 without serum and used as substrate in neuron-astrocyte assays.
For neuronal cultures, timed-pregnant BALB/c females (Simonsen Laboratories), C57B1/6 females or Swiss females were killed by halothane followed by cervical dislocation, and embryos were removed at the day 14 (E14). Cortical progenitors were prepared from cerebral hemispheres from E14 embryos as previously described (Martinez and Gomes, 2002, Neuritogenesis induced by thyroid hormone-treated astrocytes is mediated by epidermal growth factor/mitogen-activated protein kinase-phosphatidylinositol 3-kinase pathways and involves modulation of extracellular matrix proteins, J Biol Chem, 277:49311-49318, incorporated herein by reference; Sousa et al., 2004, Glial fibrillary acidic protein gene promoter is differently modulated by transforming growth factor-beta 1 in astrocytes from distinct brain regions, 2004, Eur J Neurosci 19(7):1721-17302004, incorporated herein by reference). Briefly, cells were freshly dissociated from cerebral hemispheres and 1×10^5 cells plated onto glial monolayer carpets non-treated or previously treated with LPA or LPA-conditioned medium for 4 hours as previously described. In the case of LPA CM assays, the medium was not replaced after 4 hours of treatment; instead it was left until the end of co-culture. Co-cultures were kept for 24 hours at 37° C. in a humidified 5% CO2, 95% air atmosphere. […]

[3] = system: TR mouse cerebral cortical immortalized neuroblast cells; assay: LPA-like activity bioassay, cell rounding / neurite retraction; type: cell-based; conditions: concentrations from 1 to 100 nM of LPA; 15-30 minutes
Experimental: LPA-like activity was assayed by measuring morphological changes in TR mouse cerebral cortical immortalized neuroblast cells as previously described (Chun and Jaenisch, Clonal cell lines produced by infection of neocortical neuroblast using multiple oncogenes transduced by retroviruses, 1996, Mol Cell Neurosci, 18:379-383; Hecht et al., Ventricular zone gene-1 (vzg-I) encodes a lysophoshpatidic acid receptor expressed in neurogeneic regions of the developing cerebral cortex, 1996, J Cell Bio, 135:1071-1083, incorporated herein by reference; Ishii et al., Functional comparisons of the lysophosphatidic acid receptors, LPA(A1)IVZG-I/EDG-2, LP(A2)/EDG-4, and LP(A3)/EDG-7 in neuronal cell lines using a retrovirus expression system, 2000, Molecular Pharmacology, 58(5):895-902, incorporated herein by references; Fukushima et al., Lysophosphatidic acid influences the morphology and motility of young, postmitotic cortical neurons, 2002, Mol Cell Neurosci, 20(2):271-282, incorporated herein by reference). […] After this period, cells were fixed with 4% PFA and round cells were counted under phase-contrast optics (A-F). […]
After this period, cells were fixed with 4% PFA and round cells were counted under phase-contrast optics (A-F) The cell number was expressed by percentage of protophasmic, non-round population. […]

[4] = system: cortical neuronal progenitors plated onto astrocyte monolayers derived from LPA1 LPA2 null mice; assay: co-culture on LPA1 LPA2 null astrocytes previously treated with LPA; type: cell-based, mouse; conditions: P>0.05
Experimental: In order to address the involvement of LPA receptor in LPA-astrocyte effects on neuronal morphogenesis, cortical neuronal progenitors derived from E14 wild type mice were plated onto cortical astrocyte mono layers derived from LPA, LPA2 null mice previously treated with LPA. After 24 hours, cells were immunostained for the neuronal marker, β-tubulin III, and the number of neurons and arborization of their neurites were measured. […] The scale bar in FIG. 8 corresponds to 50 μm.

[5] = system: astrocyte primary cultures from wild type and LPA double-null newborn mice; assay: astrocyte morphology and GFAP immunostaining after LPA; type: cell-based, mouse; conditions: 1 μM LPA for 24 hours; wild type and LPA1 LPA2 null astrocytes
From the text: The Generation of Receptor-Null Mice Allows not Only Direct Examination of the systemic roles of LPA receptors in vivo (Contos et al., Requirement of the LPA1 lysophosphatidic acid receptor gene in normal suckling behavior, 2000, PNAS, 97(24):13384-13389, incorporated herein by reference; Contos et al., Characterization of LPA(2) (Edg4) and LPA(I)/LPA(2) (edg2/Edg4) lysophosphatidic acid receptor knockout mice: signaling deficits without obvious pehotypic abnormality attributable to LPA(2), 2002, Mol Cell Bio, 22(19):6921-6929, incorporated herein by reference) but it also contributes for further elucidation of LPA receptor-specific signaling pathways in receptor-null primary cells (Ishii et al., Functional comparisons of the lysophosphatidic acid receptors, LP(A1))/VZG-1/EDG-4, and LP(A3)/EDG-7 in neuronal cell lines using a retrovirus expression system, 2000, Mol. Pharmacology, 58:895-902, incorporated herein by reference). To determine whether LPA effects in the co-culture system are mediated by specific LPA receptors, astrocyte mono layers derived from mice with null mutations in both LPA1 and LPA2 receptors were prepared. Astrocyte primary cultures were prepared from cerebral cortex of wild type and LPA double-null newborn mice. Astrocyte mono layers were kept in DMEM/F12 medium supplemented with 10% fetal calf serum for days until reaching confluence. […]

[6] = system: cultured embryonic hippocampal neurons; conditions: cited from earlier work
[7] = double-null astrocytes infected with either the LPA1 or LPA2 retrovirus, treated with LPA
[8] = neurons plated onto LPA-treated astrocytes, P<0.05

Oleoyl-LPA
prevalence of greater than two neurites/neurons [1, 7]: increased prevalence
β-tubulin III cells [1, 7]: increased
neuronal differentiation ([1]; double-null astrocytes infected with empty vector control virus (SOO3), primed with LPA): did not result in an increase
number of caspase positive cells (activated caspase-3) ([2]; after 24 hours of coculture, control vs treated cultures, P>0.05): no difference
increase in the number of β-tubulin III positive cells ([2]; astrocytes treated with 1 μM LPA for 4 hours, 24 hours co-culture, vs control astrocytes, P<0.05): 41%
decrease in the number of aneuritic neurons [2, 8]: 64%
neurons extending three or more neurites [2, 8]: dramatic increase
number of neurons with two neurites [2, 8]: significant increase
total number of cells ([2]; progenitor cells plated onto LPA-astrocyte monolayers, P>0.05): not altered
rounding of TR cells [3]: induced rounding
neuronal population ([4]; LPA1 LPA2 null astrocytes treated with LPA, 24 hours): did not affect neuronal population
neuronal death ([4]; treated vs non-treated LPA1 LPA2 null astrocytes): did not differ
astrocyte morphology [5]: did not affect astrocyte morphology

cyclic phosphatidic acid [cPA]
neurite outgrowth [6]: promoted neurite outgrowth
